One block for each compound: values may come before it.
Key:
[1] = target: T1, human phosphatase VHR, wild type, SEQ ID NO:2 (Homo sapiens, UniProt P51452); format: biochemical
T1 construct: fragment containing the entire VHR coding region; glutathione-S-transferase (GST), pGEX-KT (N, cleaved yes); made in house
Description: (§1) Production and purification of bacterially-expressed VHR. A 0.8 kB SalI-HinDIII fragment containing the entire VHR coding region was blunt-ended with DNA polymerase (Klenow fragment), and BamHI linkers were added. DNA was digested with BamHI, and inserted in-frame into the BamHI site of the pGEX-KT expression vector, described in Hakes et al., Anal. Biochem. 202:293-298 (1992), to produce pGEX-VHR. Plasmid pGEX-VHR was used to express VHR as a fusion protein with glutathione-S-transferase (GST). Expression and purification of GST-VHR was performed as described for a rat brain PTP. Guan et al. (Anal. Biochem. 1991). […] VHR protein, obtained by thrombin cleavage of the purified GST fusion protein, was used for phosphatase assays.
(§2) Phosphatase assays with purified VHR. Dephosphorylation of p-nitrophenylphosphate (pNPP) was performed as described previously. Tonks et al., J. Biol. Chem. 263:6731-6737 (1988).
(§3) Fischer et al. (1991); Hunter et al. (1989).

[2] = target: human phosphatase VHR as GST-VHR fusion protein (glutathione-S-transferase fusion, VHR SEQ ID NO:2) (Homo sapiens, UniProt P51452); conditions: hydrolysis of pNPP, absorbance at 410 nm
Sequence of human phosphatase VHR as GST-VHR fusion protein (glutathione-S-transferase fusion, VHR SEQ ID NO:2) (P51452 whole entry, the tested form may be a part): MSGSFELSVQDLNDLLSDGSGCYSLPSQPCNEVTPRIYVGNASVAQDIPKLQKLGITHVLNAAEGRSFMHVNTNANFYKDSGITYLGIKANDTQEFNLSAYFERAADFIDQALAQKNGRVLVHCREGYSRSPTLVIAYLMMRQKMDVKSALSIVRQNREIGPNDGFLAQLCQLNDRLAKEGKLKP
Description: as §1, §2, §3

[3] = target: highly purified PDGF receptor (baculovirus-expressed)
[4] = target: human phosphatase VHR (clone 27 lysate, pCEV27) (Homo sapiens, UniProt P51452); conditions: 3 mM sodium vanadate, 37 C, 30 minutes
Sequence of human phosphatase VHR (clone 27 lysate, pCEV27) (P51452 whole entry): as the sequence (P51452 whole entry, the tested form may be a part) above
Description: Phosphatase assays with bacterial extracts. […] Cultures of E. coli strain Y1091 (50 ml), carrying either pCEV-bek, pCEV-lacZ (pCEV-lacZ vector without an insert), or pCEV27 were grown and induced with 1 mM IPTG as described. […] Cells were collected by centrifugation and lysed in 1 ml of buffer containing 50 mM HEPES, pH 7.4, 1% Triton X-100, and 1 mM phenylmethylsulfonyl fluoride. Lysates were sonicated twice for ten seconds each, clarified by centrifugation, and the supernatants were tested for phosphatase activity.
The reaction was stopped by boiling in sodium dodecyl sulfate polyacrylamide gel electrophoresis (SDS-PAGE) sample buffer, described by Laemmli, Nature 227:680-685 (1970), for three minutes. The Sample was divided into two equal aliquots, resolved by 6.5% SDS-PAGE, and transferred to Immobilon (Milipore).
Immunoblotting was performed with monoclonal anti-pTyr (Upstate Biotechnology, Inc.) or monoclonal anti-β-gal antibodies (Promega) as described previously.

T1 sequence (P51452 whole entry, the tested form may be a part): as above

Compound: C=C1[C@@H](O)[C@@H]2O[C@]3(CC[C@H](/C=C/[C@@H](C)[C@@H]4CC(C)=C[C@@]5(O[C@H](C[C@@](C)(O)C(=O)O)CC[C@H]5O)O4)O3)CC[C@H]2O[C@@H]1[C@@H](O)C[C@H](C)[C@H]1O[C@@]2(CCCCO2)CC[C@H]1C [Okadaic acid]
- inhibitory effect on the enzyme activity (pNPP hydrolysis) [1]: no inhibitory effect

- Km (pNPP) [2]: in the micromolar range
- Km (pNPP) after cleavage of the VHR from GST with thrombin ([1]; compared with GST-VHR fusion, data not shown): unchanged
Compound: O=[N+]([O-])c1ccc(OP(=O)(O)O)cc1 [pNPP, p-nitrophenylphosphate]

Compound: [F-].[Na+] [sodium fluoride]
- inhibitory effect on the enzyme activity (pNPP hydrolysis) [1]: no inhibitory effect

- Km of dephosphorylation (anti-pTyr/[125I]-protein A immunoblot, PhosphorImager) [3]: < 100 mM
Compound: VHR (enzyme)

Compound: sodium vanadate
- inhibition of pNPP hydrolysis by the phosphatase [1]: completely inhibited
- inhibition of the reduction of pTyr content of beta-gal-bek by clone 27 lysate [4]: inhibited

Reference: US5512434A (priority 1992, dated 1996)
